As a reminder, the IC50 is the concentration that inhibits the measured activity by half. The term melting point denotes the temperature, or range, at which the solid turns liquid.

For data set [1], the system named is morphine-induced hyperalgesia. Put plainly: Morphine-induced hyperalgesia model in the mouse (tail immersion test). The note with it: 10 mg/kg s.c.; morphine 10 mg/kg s.c. daily during 8 days; male C57/B16N mice; tail immersion test 47° C. It counts as in vivo. The procedure: This method, which detects opioid-induced hyperalgesia, follows those well-known by one skilled in the art and described in the literature (Elhabazi K et al., J Vis Exp. 2014; (89):e51264). The procedure applied to the compounds of the invention is as follows:
Nociceptive thresholds are assessed using the tail immersion test (TIT). After TIT, mice are treated daily during 8 consecutive days with morphine (10 mg/kg, sub-cutaneous s.c.) +/− tested compounds (10 mg/kg, s.c.) 20 min before morphine injection for example 31 and 32 and twice a day for examples 56 and 143 (20 min before morphine injection, and in the afternoon).
Mice used were male C57/B16N 8 weeks old at the beginning of the experiment. During TIT the tail of the animal is immersed two-thirds in a water bath at 47° C. and the withdrawal latency is recorded in seconds. The cutoff is 25 seconds, to avoid tissue damage. After TIT mice received an injection depending on their group then are replaced to their home cages.
FIGS. 1A and 1B show the mean time of tail withdrawal latency in each group of animals. The anti-hyperalgesia effect of the tested compounds was compared to vehicle-treated group using ANOVA test followed by the Bonferroni's test.

Data set [2] concerns the target T1, human NPFFR1 (hNPFFR1) receptor (Homo sapiens, UniProt Q9GZQ6).
T1 construct: expressed in transfected cells; host or cells: HEK-293 T cells, transient co-transfection with polyethylenimine
Description: Human NPFFR1 evaluation using BRET biosensors (antagonist IC50). It counts as cell-based. The following applies: hNPFFR1 transiently over-expressed in HEK-293 T cells; BRET signal; stimulation by EC80 RFRP-3. The procedure, abridged: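 HEK-293T cells co-transfected with receptor, GαoB and Gi-effector BRET biosensor pair, assayed 48 h later. Compound 10 min, then EC80 RFRP-3 with 10 min luminescence read; IC50 from 20-concentration variable-slope fit, duplicate, two independent experiments.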

Data set [3] deals with hyperalgesia induced by the repeated administration of opiate analgesics. The note with it: administered in vivo in the rat; cited from earlier work.

T1 sequence (Q9GZQ6 whole entry): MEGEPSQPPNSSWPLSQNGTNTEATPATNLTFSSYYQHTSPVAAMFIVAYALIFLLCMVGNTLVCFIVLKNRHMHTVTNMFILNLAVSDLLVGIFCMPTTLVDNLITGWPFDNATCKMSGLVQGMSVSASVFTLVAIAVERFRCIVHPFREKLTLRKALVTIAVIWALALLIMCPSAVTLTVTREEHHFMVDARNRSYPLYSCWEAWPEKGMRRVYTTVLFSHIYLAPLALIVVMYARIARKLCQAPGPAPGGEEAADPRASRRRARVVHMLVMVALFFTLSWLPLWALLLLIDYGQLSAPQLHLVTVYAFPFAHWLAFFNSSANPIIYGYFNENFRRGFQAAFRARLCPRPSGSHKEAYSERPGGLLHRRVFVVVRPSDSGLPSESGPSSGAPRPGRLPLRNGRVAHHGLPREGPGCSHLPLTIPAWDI

Compound `Cl.Nc1ccc(-c2cccc3ccc(=O)[nH]c23)c(N)n1` [Example 56, 8-(2,6-diaminopyridin-3-yl)quinolin-2(1H)-one] yielded a melting point of more than 250 °C. In data set [1], the “blockade of morphine-induced hyperalgesia (tail withdrawal latency)” value was “significant blockade of morphine-induced hyperalgesia”. The IC50 in data set [2] was less than 100 nM.

As for “Na-adamantan-1-yl-L-Arg-L-Phe-NH2 acetate [RF9]”, the antihyperalgesic activity entry in data set [3] is reported as “antihyperalgesic activity”.

Compound `CCc1nc(N)ccc1-c1cccc2ccnn12.Cl` [Example 104, 6-ethyl-5-(pyrazolo[1,5-a]pyridin-7-yl)pyridin-2-amine] yielded a melting point of 234 to 243 °C. Also, the IC50 in data set [2] fell in the range of 100 to 1000 nM.

As for `CCc1nc(N)ccc1-c1cccc2ccc(-c3cnoc3)nc12` [Example 125, 6-ethyl-5-(2-(isoxazol-4-yl)quinolin-8-yl)pyridin-2-amine], the melting point lay within 178 to 182 °C. The same compound returned an IC50 in data set [2] of less than 100 nM.

For `CCc1nc(N)ccc1-c1ccccc1-c1ccc(N2CCOCC2)nc1.Cl` [Example 84, 6-ethyl-5-(2-(6-morpholinopyridin-3-yl)phenyl)pyridin-2-amine], the melting point lay in the range of 95 to 110 °C. The compound further registered an IC50 in data set [2] of less than 100 nM.

As for `CCc1nc(N)ccc1-c1c(F)ccc2cc(F)cnc12.Cl` [Example 143, 5-(3,7-difluoroquinolin-8-yl)-6-ethylpyridin-2-amine], the melting point lay in the range of 245 to 250 °C. In addition, the “blockade of morphine-induced hyperalgesia (tail withdrawal latency)” value in data set [1] is “significant blockade of morphine-induced hyperalgesia”. The compound further had an IC50 in data set [2] of less than 100 nM.

Take `CC(C)Cc1nc(N)ccc1-c1c(F)ccc2cccnc12.Cl` [Example 70, 5-(7-fluoroquinolin-8-yl)-6-isobutylpyridin-2-amine]: the melting point lay in the range of 130 to 170 °C. This compound showed an IC50 in data set [2] of less than 100 nM.

As to `CN1Cc2c(cccc2-c2ccc(N)nc2N)C1=O` [Example 27, 4-(2,6-Diamino-3-pyridyl)-2-methyl-isoindolin-1-one], the melting point is more than 250 °C. Besides, the IC50 in data set [2] is more than 1000 nM.

In turn, `CCc1nc(N)ccc1-c1cccc2nccn12.Cl` [Example 103, 6-ethyl-5-(imidazo[1,2-a]pyridin-5-yl)pyridin-2-amine] returned a melting point of 115 to 155 °C. The half-maximal inhibitory concentration (IC50) in data set [2] is more than 1000 nM.

The compound `CCc1nc(N)ccc1-c1c(F)ccc2cc(-c3ccccc3)cnc12.Cl` [Example 107, 6-ethyl-5-(7-fluoro-3-phenylquinolin-8-yl)pyridin-2-amine] had a melting point of more than 250 °C. Besides, the half-maximal inhibitory concentration (IC50) in data set [2] is 100 to 1000 nM.

Compound `Cl.Nc1ccc(-c2ccc(F)c3cccnc23)c(N)n1` [Example 55, 3-(5-fluoroquinolin-8-yl)pyridine-2,6-diamine] registered a melting point of 73 to 81 °C. The IC50 in data set [2] is less than 100 nM.

Compound `CCc1nc(N)ccc1-c1c(F)ccc2ccc(N3CCCOCC3)nc12.Cl` [Example 134, 6-ethyl-5-(7-fluoro-2-(1,4-oxazepan-4-yl)quinolin-8-yl)pyridin-2-amine] displayed a melting point of 100 to 150 °C. Further, in data set [2], the IC50 is less than 100 nM.

`Nc1ccc(-c2coc3ccccc23)c(N)n1` [Example 20, 3-(Benzofuran-3-yl)pyridine-2,6-diamine]: the melting point is 109 to 112 °C. In data set [2], this compound displayed an IC50 of 100 to 1000 nM.

`CCc1nc(N)ccc1-c1cccc2cc(C)cnc12.Cl` [Example 95, 6-ethyl-5-(3-methylquinolin-8-yl)pyridin-2-amine] came in with a melting point of more than 250 °C. In data set [2], this compound showed an IC50 of less than 100 nM.

`CCc1nc(N)ccc1-c1cccc2c(C)ccnc12.Cl` [Example 91, 6-ethyl-5-(4-methylquinolin-8-yl)pyridin-2-amine]: the melting point is more than 250 °C. Further, in data set [2], the half-maximal inhibitory concentration (IC50) was in the range of 100 to 1000 nM.

`Cc1nc(N)ccc1-c1cccc2cccnc12.Cl` [Example 3, 6-Methyl-5-quinolin-8-yl-pyridin-2-ylamine] showed a melting point of more than 250 °C. The IC50 in data set [2] fell in the range of 100 to 1000 nM.

`Cl.Nc1ccc(-c2c(F)cc(F)c3cc(F)cnc23)c(N)n1` [Example 61, 3-(3,5,7-trifluoroquinolin-8-yl)pyridine-2,6-diamine] registered a melting point of more than 250 °C. Moreover, in data set [2], the concentration for half-maximal inhibition (IC50) is less than 100 nM.

`CCc1nc(N)ccc1-c1c(F)ccc2ccc(N3CCCCCC3)nc12.Cl` [Example 137, 5-(2-(azepan-1-yl)-7-fluoroquinolin-8-yl)-6-ethylpyridin-2-amine] registered a melting point of 110 to 145 °C. For the same compound, the IC50 in data set [2] is less than 100 nM.

Turning to `CCc1nc(N)ccc1-c1ccccc1-c1cccnc1.Cl` [Example 44, 6-Ethyl-5-[2-(3-pyridyl)phenyl]pyridin-2-amine], the melting point was more than 250 °C. This compound gave an IC50 in data set [2] of 100 to 1000 nM.

Consider `Cn1ccc2cccc(-c3ccc(N)nc3N)c21` [Example 49, 3-(1-methyl-1H-indol-7-yl)pyridine-2,6-diamine], for which the melting point lay within 100 to 117 °C. For the same compound, the IC50 in data set [2] was less than 100 nM.

Consider `CCc1nc(N)ccc1-c1cc(F)cc2cccnc12.Cl` [Example 74, 6-ethyl-5-(6-fluoroquinolin-8-yl)pyridin-2-amine], for which the melting point lay in the range of 50 to 56 °C. Moreover, in data set [2], the IC50 is less than 100 nM.

Consider `Nc1ccc(-c2ccnc3ccccc23)c(N)n1` [Example 35, 3-Quinolin-4-yl-pyridine-2,6-diamine], for which the melting point is more than 250 °C. In addition, in data set [2], the IC50 is more than 1000 nM.

Turning to `CC(C)Cc1nc(N)ccc1-c1cccc2cccnc12.Cl` [Example 67, 6-isobutyl-5-(quinolin-8-yl)pyridin-2-amine], the melting point lay in the range of 100 to 140 °C. The compound further registered an IC50 in data set [2] of less than 100 nM.

On to `CC(C)c1nc(N)ccc1-c1csc2ccccc12.Cl` [Example 10, 5-Benzo[b]thiophen-3-yl-6-isopropyl-pyridin-2-ylamine], for which the melting point is more than 250 °C. The same compound yielded an IC50 in data set [2] of 100 to 1000 nM.

`CCc1nc(N)ccc1-c1csc2ccccc12` [Example 4, 5-Benzo[b]thiophen-3-yl-6-ethyl-pyridin-2-ylamine] had a melting point of 108 to 120 °C. Also, in data set [2], the half-maximal inhibitory concentration (IC50) was 100 to 1000 nM.

`Nc1ccc(-c2cccc3ncccc23)c(N)n1` [Example 34, 3-Quinolin-5-yl-pyridine-2,6-diamine] had a melting point of more than 250 °C. This compound also displayed a half-inhibitory concentration (IC50) in data set [2] of 100 to 1000 nM.
